Measurements published in patent US11541027B2 (DelMar Pharmaceuticals, Inc., priority 2014, dated 2023).
“Also recorded” adds a separate entry of the source.

How the values were obtained:
[1] = cited from earlier work
[2] = tested on: NSCLC cell lines other than H460; assay: Cytotoxicity in NSCLC tumor models, range over the cell lines other than H460; type: cell-based, human; settings: NSCLC cell lines other than H460, single agents
RIF-1 cell-line = assay: Standard syngeneic mouse fibrosarcoma model, tumor growth delay; type: in vivo; settings: 4 mg/kg, single IP injection, RIF-1 in C3H mice; for Tumor Delay: vs untreated
[3] = tested on: A549 (TKI-sensitive) human lung adenocarcinoma xenograft tumors; assay: A549 NSCLC xenograft tumor model in female Rag2 mice
Description: (§1) Rag2 mice bearing subcutaneous human lung adenocarcinoma xenograft tumors of either TKI-resistant (H1975) or TKI-sensitive (A549) origin were treated.
(§2) Two human NSCLC cell lines, A549 (TKI-sensitive) and H1975 (TKI-resistant), were used as xenograft tumor models in female Rag2 mice. The mice were 6 to 8 weeks of age and weighed 18-23 grams. 10 mice were used per group.
Cisplatin was used in normal saline at a dose of 5 mg/kg. Administration was intravenous.
Administration was intraperitoneal.
Treatment was initiated at a tumor volume of 100 mm^3 to 150 mm^3.
The cells were started from a frozen vial of lab stock that were frozen down from the ATCC original vial and kept in liquid nitrogen. Cell cultures with a passage number of 3 to 10 and a confluence of 80%-90% were used. […] Cells were subcultured once weekly with a split ratio 1:3 to 1:8 and expanded.
For cell preparation and harvesting for subcutaneous (s.c.) inoculation, the cells were rinsed briefly once with Hanks Balanced Salt Solution without calcium or magnesium. […] The cells were allowed to sit at 37° C. for a few minutes. The cells were observed under an inverted microscope until the cell layer was dispersed, fresh medium was added, 50 μL of cell suspension was taken and mixed with trypan blue (1:1), and the cells were counted and cell viability assessed by using Cellometer Auto T4. The cells were centrifuged at 200×g for 7 minutes and the supernatant was aspirated. The cells were resuspended in growth medium to obtain a concentration of 100×10^6 cells/mL. For inoculation, 5×10^6 cells were used in an injection volume of 50 μL per mouse in 1:1 Matrigel.
On day 0, tumor cells were implanted subcutaneously into mice in a volume of 50 μL in Matrigel using a 28-gauge needle; injection of the tumor cells was in the back of the mice. Mice were randomly assigned to groups based on tumor volume.
For administration, 5 mL of 0.9% sodium chloride for injection, USP (saline) was added to yield a DAG solution with a concentration of 8 mg/mL.
Mice were injected with the required volume to administer the prescribed dose (mg/kg) to the animals based on individual mouse weights using a 28-gauge needle. The injection volume was 200 μL for a 20-g mouse. The mice were briefly (less than 30 seconds) restrained during intravenous injections. Dilation of the vein for intravenous injections was achieved by holding the animals under a heat lamp for a period of between 1-2 minutes.
Mice were individually weighed and injected intraperitoneally according to body weight at the specified injection concentration (see Table 1). The injection volume was based on 200 μL per 20-g mouse. The abdominal surface was wiped down with 70% isopropyl alcohol to clean the injection site.
Tumor growth was monitored by measuring tumor dimensions with calipers beginning on the first day of treatment. Tumor length and width measurements were obtained each Monday, Wednesday, and Friday. Tumor volumes were calculated according to the equation L×W^2/2 with the length (in mm) being defined as the longer axis of the tumor. Animals were weighed at the time of tumor measurement. Tumors were allowed to grow to a maximum of 800 mm^3 before termination.
All animals had blood collected by cardiac puncture at termination for CBC (complete blood count) with differentiation.
In particular, signs of ill-health were based on body weight loss, change in appetite, and behavioral signs such as altered gait, lethargy, and gross manifestations of stress.

[4] = tested on: H1975 (TKI-resistant) human lung adenocarcinoma xenograft tumors; assay: H1975 NSCLC xenograft tumor model in female Rag2 mice
Description: as §1, §2
Rag2 mice bearing subcutaneous human lung adenocarcinoma xenograft tumors of either TKI-sensitive (A549) or TKI-resistant (H1975) origin were treated. […] Saline was used as control treatment. Disease progression was evaluated by tumor volume, clinical observations and body weight measurements. Blood samples were analyzed for CBC/differential analyses to assess myelosuppression or other changes in blood chemistry.
Cell number for inoculation was 5×10^6 cells for A549 cells in an injection volume of 50 μL per animal. For H1975 cells, cell number for inoculation was 2×10^6 cells in an injection volume of 50 μL per animal.
Treatment was initiated at average tumor volume of 100-150 mm^3.
Tumor growth delay (TGD) was calculated according to Equation (2): TGD=DTtx−DTcontrol (2).
For these calculations, TV is tumor volume, tx is treatment, int is initial, DT is doubling time for mean tumor volume from 200 mm^3 to 400 mm^3 for A549 or from 300 mm^3 to 600 mm^3 for H1975. MTV is mean tumor volume in mm^3 and TCR is tumor control ratio.
Disease progression was evaluated by tumor volume, clinical observations and body weight measurements.

H838 = assay: Cytotoxicity in NSCLC tumor models; type: cell-based, human; settings: H838, p53 wt; N = 3
From the text: (§3) The cell lines include cell lines with wild-type p53, cell lines with mutant p53, and cell lines in which p53 has been knocked out (“null”). The properties of these cell lines are described in F. Bunz et al., “Requirement for p53 and p21 to Sustain G2 Arrest After DNA Damage,” Science 282: 1497-1501 (1998), incorporated herein by this reference.

H226 = assay: Cytotoxicity in NSCLC tumor models; type: cell-based, human; settings: H226, p53 wt; N = 3
From the text: as §3

H157 = assay: Cytotoxicity in NSCLC tumor models; type: cell-based, human; settings: H157, p53 mu; N = 3
From the text: as §3

A549 = assay: Cytotoxicity in NSCLC tumor models; type: cell-based, human; settings: A549, p53 wt; N = 3
From the text: as §3

SkLU1 = assay: Cytotoxicity in NSCLC tumor models; type: cell-based, human; settings: SkLU1, p53 mu; N = 3
From the text: as §3

H460 = assay: Cytotoxicity in NSCLC tumor models; type: cell-based, human; settings: H460, p53 wt; N = 3
From the text: as §3

H1975 = assay: Cytotoxicity in NSCLC tumor models; type: cell-based, human; settings: H1975, p53 mu; N = 3
From the text: as §3

H1299 = assay: Cytotoxicity in NSCLC tumor models; type: cell-based, human; settings: H1299, p53 null; N = 3
From the text: as §3

H2122 = assay: Cytotoxicity in NSCLC tumor models; type: cell-based, human; settings: H2122, p53 mu; N = 3
From the text: as §3

[5] = 5 mg/kg i.v. Q7D × 3, A549 model
[6] = group 2, 5 mg/kg Q7D×3 i.v., A549 model, days post-inoculation

Compound	IC50 [2]	IC50 (H838)	IC50 (H226)	IC50 (H157)	IC50 (A549)	IC50 (SkLU1)	IC50 (H460)	IC50 (H1975)	IC50 (H1299)	IC50 (H2122)	other results
O[C@H]([C@H](O)[C@@H](O)CBr)[C@H](O)CBr [dibromodulcitol]											absorption by the oral route [1]: rapid and fairly complete
N.N.[Cl][Pt][Cl] [Cisplatin, cisplatin, reference compound]	500 to 2200 nM	1.18 µM	1.82 µM	2.16 µM	0.74 µM	0.89 µM	0.45 µM	0.45 µM	1.2 µM	1.07 µM	Days to 4 × Median Tumor Size (RIF-1 cell-line): 7.75 days; Tumor Delay (RIF-1 cell-line): 1.45 days; Tumor Delay (RIF-1 cell-line; listed as cisplatin): 1.5 days; MTV at Day 68 [3, 5]: 460 mm^3; Median survival [3, 5]: 72 days; TCR at Day 68 ([3]; 5 mg/kg i.v. Q7D × 3, A549 model, tumor control ratio): 0.72; TGD ([3]; 5 mg/kg i.v. Q7D × 3, A549 model, tumor growth delay vs untreated control, doubling time 200 to 400 mm^3): 4 days; TGI (%) ([3]; 5 mg/kg i.v. Q7D × 3, A549 model, tumor growth inhibition): 29%; body weight / tolerability of the dosage ([3]; 5 mg/kg i.v. Q7D × 3, A549 tumor-bearing Rag2 mice): body weight loss was observed; also recorded: near the MTD; number of animals remaining on study on day 70 ([3]; group 2, 5 mg/kg Q7D×3 i.v., A549 model): 6/10; day on which a mean tumor volume of 200 mm^3 was observed [3, 6]: 49 days; day on which a mean tumor volume of 400 mm^3 was reached [3, 6]: 66 days; doubling time ([3]; group 2, 5 mg/kg Q7D×3 i.v., A549 model, mean tumor volume 200 to 400 mm^3): 17; MTV at Day 31 ([4]; 5 mg/kg i.v. Q7D × 3): 381 mm^3; Median survival ([4]; 5 mg/kg i.v. Q7D × 3): 31 days; body weight ([4]; 5 mg/kg i.v. Q7D × 3 (group 2)): Body weight loss was observed; TCR at Day 31 ([4]; 5 mg/kg i.v. Q7D × 3, tumor control ratio): 0.83
O=C1[O][Pt]2([NH][C@@H]3CCCC[C@H]3[NH]2)[O]C1=O [Oxaliplatin, oxaliplatin]	600 to 2600 nM	2.63 µM	0.82 µM	2.04 µM	0.57 µM	2.02 µM	0.36 µM	0.51 µM	0.64 µM	1.42 µM	
